Results reported in patent US8278442B2, “Bicyclic aryl and heteroaryl compounds for the treatment of metabolic disorders” (Prosidion Limited, priority 2007, dated 2012).

What was measured:
[1] = molecular target: T1, mu-opioid receptor (Homo sapiens, UniProt P35372); experiment: Competition binding assay (3H-DAMGO); conditions: mu-opioid receptor expressing membranes, 0.5 nM 3H-DAMGO
Experimental: Competition Binding Assays
Mu-, kappa- or delta-opioid receptor expressing membranes (5-15 μg/well) were suspended in 50 mM Tris buffer pH 7.6 containing 5 mM MgCl2 and were incubated on 96-well plates with test compound or vehicle (1% DMSO) and either 0.5 nM ^3H-DAMGO, 0.8 nM ^3H—U-69,595 or 1.1 nM ^3H-DPDPE respectively in a total volume of 200 μL for 90 min at rt (22° C.). The contents of the wells were filtered and washed 5 times with chilled 50 mM Tris buffer pH 7.6 through H2O pre-soaked GF/B filters using a Perkin Elmer Filtermate. The filters were dried and upon application of scintillant the bound radioactive content for each well determined by scintillation counting in a Wallac TriLux Microbeta scintillation counter. Non-specific binding was determined in the presence of 2 μM Naloxone. IC50 values were determined by plotting log concentration test compound against specific binding and subsequent Ki values calculated.

[2] = molecular target: T1, mu-opioid receptor; experiment: GTPγS functional binding assay; format: biochemical; conditions: mu-opioid receptor expressing membranes, agonist DAMGO 10 nM, 35S-GTPγS binding
Experimental: GTPγS Functional Binding Assays
Mu-, kappa- or delta-opioid receptor expressing membranes (5-20 μg/well) were suspended in 50 mM HEPES buffer pH 7.6 containing 3 mM MgCl2, 120 mM NaCl, 150 pM GTPγS, 10 μg/mL saponin and 3 μM GDP (μ-opioid receptor assay) or 5 μM GDP (κ- and δ-opioid receptor assay) and were pre-incubated on 96-well plates with test compound or vehicle (1% DMSO) in a total volume of 160 μL for 10 min at rt (22° C.). Specific agonists DAMGO (10 nM final concentration), U-50,488 (30 nM final concentration) or SNC-80 (10 nM final concentration) were added respectively and the plates pre-incubated for a further 15 min at rt (22° C.) ^35S-GTPγS at a final concentration in the assay of 150 pM was then added to provide a total volume per well of 200 μL and the plates incubated for 45 min at 30° C. The contents of the wells were filtered and washed 5 times with chilled 50 mM Tris buffer pH 7.6 through H2O pre-soaked GF/B filters using a Perkin Elmer Filtermate. The filters were dried and upon application of scintillant the bound radioactive content for each well determined by scintillation counting in a Wallac TriLux Microbeta scintillation counter. Non-specific binding was determined in the presence of 10 μM GTPγS. IC50 values were determined by plotting log concentration test compound against percentage increase over non-stimulated ^35S-GTPγS binding.

T1 sequence (P35372 whole entry, species assumed): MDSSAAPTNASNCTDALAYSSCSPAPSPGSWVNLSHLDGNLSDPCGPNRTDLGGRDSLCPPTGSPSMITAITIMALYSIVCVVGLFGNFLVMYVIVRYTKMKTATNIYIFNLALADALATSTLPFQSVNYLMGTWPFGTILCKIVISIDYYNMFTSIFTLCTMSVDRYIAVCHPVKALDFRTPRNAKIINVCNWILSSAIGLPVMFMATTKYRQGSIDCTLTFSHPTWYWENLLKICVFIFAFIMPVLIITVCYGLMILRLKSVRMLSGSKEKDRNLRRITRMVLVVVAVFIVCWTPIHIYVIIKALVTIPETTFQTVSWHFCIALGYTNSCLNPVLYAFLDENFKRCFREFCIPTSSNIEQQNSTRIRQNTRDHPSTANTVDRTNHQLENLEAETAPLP

NC(=O)c1ccc(Oc2ccc(CNC3CCOCC3)c3ccccc23)nc1 [Example 16, 6-{4-[(Tetrahydropyran-4-ylamino)methyl]naphthalen-1-yloxy}nicotinamide]
Ki [1]: < 100 nM | IC50 [2]: < 100 nM
